Data as given in US4619925A, “3-Propenyl cephalosporin derivatives” (priority 1985, dated 1986).
Values after ≈ are worked out from the molar mass of the structure shown. Read-outs that look alike come from different tables or passages of the source.

Tests used:
H. influenzae A20193 = test: In vitro activity against fastidious bacteria; type: cell-based; details: Haemophilus influenzae; H. influenzae A20193; ampicillin-sensitive (ABPC-S); read-out: MIC
Source text: (§1) Table 5 contains comparative data for in vitro antibacterial activity against fastidious bacteria.

H. influenzae A21523 = test: In vitro activity against fastidious bacteria; type: cell-based; details: Haemophilus influenzae; H. influenzae A21523; ampicillin-sensitive (ABPC-S); read-out: MIC
Source text: as §1

H. influenzae A22157 = test: In vitro activity against fastidious bacteria; type: cell-based; details: Haemophilus influenzae, ampicillin-resistant (ABPC-R)
Source text: as §1

H. influenzae A22483 = test: In vitro activity against fastidious bacteria; type: cell-based; details: Haemophilus influenzae; H. influenzae A22483; ampicillin-sensitive (ABPC-S); read-out: MIC
Source text: as §1

H. influenzae A22491 = test: In vitro activity against fastidious bacteria; type: cell-based; details: Haemophilus influenzae, ampicillin-resistant (ABPC-R)
Source text: as §1

N. gonorrheae A15112 = test: In vitro activity against fastidious bacteria; type: cell-based; details: N. gonorrheae A15112; read-out: MIC
Source text: as §1

N. gonorrheae A20154 = test: In vitro activity against fastidious bacteria; type: cell-based; details: N. gonorrheae A20154; read-out: MIC
Source text: as §1

N. gonorrheae A20155 = test: In vitro activity against fastidious bacteria; type: cell-based; details: N. gonorrheae A20155; read-out: MIC
Source text: as §1

N. meningitidis A20048 = test: In vitro activity against fastidious bacteria; type: cell-based; details: Neisseria meningitidis; N. meningitidis A20048; read-out: MIC
Source text: as §1

N. meningitidis A20049 = test: In vitro activity against fastidious bacteria; type: cell-based; details: Neisseria meningitidis; N. meningitidis A20049; read-out: MIC
Source text: as §1

N. meningitidis A21487 = test: In vitro activity against fastidious bacteria; type: cell-based; details: Neisseria meningitidis; N. meningitidis A21487; read-out: MIC
Source text: as §1

S. pneumoniae A9585 = test: In vitro activity against fastidious bacteria; type: cell-based; details: Streptococcus pneumoniae; S. pneumoniae A9585; read-out: MIC
Source text: as §1

S. pneumoniae Type II = test: In vitro activity against fastidious bacteria; type: cell-based; details: Streptococcus pneumoniae; S. pneumoniae Type II; read-out: MIC
Source text: as §1

S. pyogenes A15040 = test: In vitro activity against fastidious bacteria; type: cell-based; details: Streptococcus pyogenes; S. pyogenes A15040; read-out: MIC
Source text: as §1

S. pyogenes A20065 = test: In vitro activity against fastidious bacteria; type: cell-based; details: Streptococcus pyogenes; S. pyogenes A20065; read-out: MIC
Source text: as §1

S. pyogenes A20201 = test: In vitro activity against fastidious bacteria; type: cell-based; details: Streptococcus pyogenes; S. pyogenes A20201; read-out: MIC
Source text: as §1

S. pyogenes A9604 = test: In vitro activity against fastidious bacteria; type: cell-based; details: Streptococcus pyogenes; S. pyogenes A9604; read-out: MIC
Source text: as §1

S. pyogenes Dick = test: In vitro activity against fastidious bacteria; type: cell-based; details: Streptococcus pyogenes; S. pyogenes Dick; read-out: MIC
Source text: as §1

Mouse blood levels = details: mouse; for half-life: T 1/2
Source text: Table 3 contains comparative blood level data for mice treated orally and intramuscularly with the hydroxyphenylglycyl derivatives.

Mouse urinary recovery = type: in vivo, mice; details: mouse, urine, po, 20 mg/kg; for dose excreted at 24 h: p.o.
[1] = test system: Gn-Ia organisms (Gram-negative bacteria sensitive to ampicillin and cephalothin); test: In vitro activity, agar dilution, group of five strains; type: cell-based
Source text: Each of these groups of organisms is constituted of five individual strains of microorganism. The Gp-Ia organisms are Gram-positive staphylococci which are sensitive to penicillin. The Gp-Ib organisms are Gram-positive staphylococci which are resistant to penicillin and produce penicillinase. The Gn-Ia organisms are Gram-negative bacteria which are sensitive to ampicillin and cephalothin. The Gn-Ib organisms are Gram-negative bacteria which are resistant to ampicillin and cephalothin.

With `C/C=C\C1=C(C(=O)O)N2C(=O)C(NC(=O)[C@H](N)c3ccc(O)cc3)[C@H]2SC1` (stereo partly drawn) [BMY-28100, 7-[D-2-amino-2-(4-hydroxyphenyl)acetamido]-3-[(Z)-1-propen-1-yl]-3-cephem-4-carboxylic acid] the MIC (H. influenzae A20193) was 0.8 µg/mL (≈ 2.05 µM), the MIC (H. influenzae A21523) was 0.8 µg/mL (≈ 2.05 µM) and the MIC (H. influenzae A22157) was 0.8 µg/mL (≈ 2.05 µM). The MIC (H. influenzae A22483) was 0.8 µg/mL (≈ 2.05 µM), the MIC (H. influenzae A22491) was 0.8 µg/mL (≈ 2.05 µM) and the MIC (N. gonorrheae A15112) was 0.8 µg/mL (≈ 2.05 µM). The MIC (N. gonorrheae A20154) was 0.8 µg/mL (≈ 2.05 µM), the MIC (N. gonorrheae A20155) was 0.8 µg/mL (≈ 2.05 µM) and the MIC (N. meningitidis A20048) was 0.4 µg/mL (≈ 1.03 µM). The MIC (N. meningitidis A20049) was 0.4 µg/mL (≈ 1.03 µM), the MIC (N. meningitidis A21487) was 0.4 µg/mL (≈ 1.03 µM) and the MIC (S. pneumoniae A9585) was 0.1 µg/mL (≈ 0.257 µM). It also gave an MIC (S. pneumoniae Type II) of 0.1 µg/mL (≈ 0.257 µM), an MIC (S. pyogenes A15040) of 0.05 µg/mL (≈ 0.128 µM) and an MIC (S. pyogenes A20065) of 0.05 µg/mL (≈ 0.128 µM). For the same molecule, the MIC (S. pyogenes A20201) was 0.05 µg/mL (≈ 0.128 µM), the MIC (S. pyogenes A9604) was 0.05 µg/mL (≈ 0.128 µM) and the MIC (S. pyogenes Dick) was 0.05 µg/mL (≈ 0.128 µM). It also gave a concentration at 10 min (Mouse blood levels; blood, im, 20 mg/kg) of 14000 ng/mL, a concentration at 20 min (Mouse blood levels; blood, im, 20 mg/kg) of 15000 ng/mL and a concentration at 0.5 h (Mouse blood levels; blood, im, 20 mg/kg) of 12000 ng/mL. For the same molecule, the concentration at 40 min (Mouse blood levels; blood, im, 20 mg/kg) was 8500 ng/mL, the concentration at 50 min (Mouse blood levels; blood, im, 20 mg/kg) was 7500 ng/mL and the concentration at 1 h (Mouse blood levels; blood, im, 20 mg/kg) was 5400 ng/mL. It also gave a concentration at 1.5 h (Mouse blood levels; blood, im, 20 mg/kg) of 2500 ng/mL, a concentration at 2 h (Mouse blood levels; blood, im, 20 mg/kg) of 1600 ng/mL and a concentration at 0.5 h (Mouse blood levels; blood, po, 20 mg/kg) of 9300 ng/mL. It also gave a concentration at 1 h (Mouse blood levels; blood, po, 20 mg/kg) of 6900 ng/mL, a concentration at 2 h (Mouse blood levels; blood, po, 20 mg/kg) of 4200 ng/mL and a concentration at 3 h (Mouse blood levels; blood, po, 20 mg/kg) of 2500 ng/mL. The concentration at 4 h (Mouse blood levels; blood, po, 20 mg/kg) was 970 ng/mL, the concentration at 5 h (Mouse blood levels; blood, po, 20 mg/kg) was 810 ng/mL and the concentration at 6 h (Mouse blood levels; blood, po, 20 mg/kg) was 650 ng/mL. For the same molecule, the concentration at 7 h (Mouse blood levels; blood, po, 20 mg/kg) was 340 ng/mL, the concentration at 0.5 h (Mouse blood levels; blood, po, 100 mg/kg) was 33000 ng/mL and the concentration at 1 h (Mouse blood levels; blood, po, 100 mg/kg) was 17000 ng/mL. It also gave a concentration at 2 h (Mouse blood levels; blood, po, 100 mg/kg) of 6500 ng/mL, a concentration at 3 h (Mouse blood levels; blood, po, 100 mg/kg) of 4500 ng/mL and a concentration at 4 h (Mouse blood levels; blood, po, 100 mg/kg) of 3300 ng/mL. It also gave a concentration at 5 h (Mouse blood levels; blood, po, 100 mg/kg) of 2700 ng/mL, a concentration at 6 h (Mouse blood levels; blood, po, 100 mg/kg) of 2500 ng/mL and a concentration at 7 h (Mouse blood levels; blood, po, 100 mg/kg) of 1700 ng/mL. The AUC (Mouse blood levels; in vivo, im, 20 mg/kg) was 13000 ng·h/mL, the half-life (Mouse blood levels; in vivo, im, 20 mg/kg) was 0.52 h and the Cmax (Mouse blood levels; in vivo, po, 20 mg/kg) was 12000 ng/mL. For the same molecule, the “T 1/2” value (Mouse blood levels; in vivo, po, 20 mg/kg) was 2.3 h, the AUC (Mouse blood levels; in vivo, po, 20 mg/kg) was 20000 ng·h/mL and the half-life (Mouse blood levels; in vivo, po, 20 mg/kg) was 1.4 h. The AUC (Mouse blood levels; in vivo, po, 100 mg/kg) was 51000 ng·h/mL, the half-life (Mouse blood levels; in vivo, po, 100 mg/kg) was 2.1 h and the dose excreted at 2 h (Mouse urinary recovery; 0-2 hr) was 60%. For the same molecule, the dose excreted at 4 h (Mouse urinary recovery; 2-4 hr) was 5.3%, the dose excreted at 6 h (Mouse urinary recovery; 4-6 hr) was 1.3% and the dose excreted at 24 h (Mouse urinary recovery; 6-24 hr, read-out: Mouse urinary recovery 6-24 hr) was 2.3%. The dose excreted at 24 h (Mouse urinary recovery; total, read-out: Mouse urinary recovery Total) was 69% and the “activity relative to cephalexin and cefaclor” value [1] was “more active than cephalexin and slightly better than cefaclor”.
